Experimental data taken from paper PMC5532363, “Synergistic blending of high-valued heterocycles inhibits growth of Plasmodium falciparum in culture and P. berghei infection in mouse model” (Scientific Reports, 2017).
Like-named read-outs stand apart in the source and are kept apart here. Blank lines part the entries; values can stand above or below the compound they belong to.

Legend:
[1] = tested on: P. falciparum 3D7; assay: Fixed-ratio isobologram drug interaction assay with CQ/DHA, 3D7; assay type: cell-based, Plasmodium falciparum; conditions: Pf3D7
Procedure: (§1) A modified fixed-ratio isobologram method was used to assess interaction between CQ/DHA and Pht analogues. Briefly, a total of 5 solutions containing fixed-ratio mixtures of Pht derivatives with either CQ or DHA were prepared in the following ratios: 1:1, 2:1, 3:2, 2:3, and 1:4. The starting concentrations for ten 2 fold-serial dilutions across the microtiter plate were assigned so that the IC50 of each drug would be in the 5th serial dilution of the plate. Each drug was tested alone and at fixed ratios of its IC50. The assessment of drug interaction was based on the calculation of the fractional inhibitory concentration (FIC) of two drugs in the […]. FIC was calculated for each association by dividing the IC50 of the drug in the combination by the IC50 of the drug alone.

[2] = tested on: P. falciparum W2; assay: Fixed-ratio isobologram drug interaction assay with CQ/DHA, W2; assay type: cell-based, Plasmodium falciparum; conditions: PfW2
Procedure: as §1

[3] = tested on: P. falciparum 3D7 (Pf3D7), CQ sensitive; assay: SYBR Green I growth inhibition assay, asynchronous P. falciparum 3D7 culture; assay type: cell-based, Plasmodium falciparum; conditions: SYBR Green, mean of three experiments, NDR / No IC50 = no dose response
From the text: (§2) Antimalarial activity of all the listed Pht analogues was initially assessed on asynchronous cultures of P. falciparum 3D7 (Pf3D7) clone using the SYBR Green assay. […] The mean IC50 values are based on three separate experiments (Table 1).
(§3) The laboratory-adapted P. falciparum strains 3D7 (Africa; CQ sensitive) and W2 (Africa; CQ resistant), were acquired from Malaria Research and Reference Reagent Resource Center (MR4) (Manassas, VA, USA) and maintained with type O +ve erythrocytes suspended in continuous complete culture medium as described. Complete culture media consisted of 10.43 g/litre of RPMI 1640-HEPES supplemented with 10% (vol/vol) human AB serum, 92.6 mg/litre L-glutamine, 50 mg/liter hypoxanthine, 2 g/litre sodium bicarbonate (Sigma-Aldrich, St. Louis, MO). Incubation of cultures was at 37 °C and maintained in a low oxygen atmosphere (5% O2, 5% CO2, 90% N). The levels of parasitemia in the cultures were maintained at between 2 and 10%, with 5% hematocrit. Media was changed after every 24 hours and parasitemia monitored every 48 hours. Synchronous cultures were prepared by sorbitol lysis. Stock solutions of the Pht, Pht analogues, and DHA were prepared in absolute dimethyl sulfoxide (DMSO) while CQ was prepared in distilled water. The prepared drug stock solutions were used immediately or stored at −80 °C for not longer than one month before use. Stock solutions were further diluted in serum free RPMI 1640 media (stock solution solvent final conc. 0.05%) before performing a 2-fold serial dilution to achieve dose ranges of 0.2 µM to 100 µM (Pht and derivatives), 7.8 to 2,000 nM (CQ) and 0.17 to 87.5 nM (DHA). 25 μL of the drug diluents were aliquoted into 96 well plates and used immediately. Alternatively, the stock solutions were diluted in distilled water, 2-fold serial dilution performed on a 96 well plate and allowed to air dry in a laminar flow hood after which dried plates were stored at 4 °C until use. SYBR Green I assay technique with additional modification was used for drug susceptibility testing of the parasites. Parasite cultures of >1% parasitemia were diluted to 1% parasitemia and 2% hematocrit and 200 μL were transferred onto drug pre-dosed plates and incubated at 37 °C for 90 hours, [40]. Drug exposure was terminated by freezing the drug plates at −80 °C for 24 hours after which lysis buffer containing (per liter) 100 mM Tris-HCl, 10 mM EDTA, 0.016% Saponin, 1.6% triton X-100 and 20X SYBR Green I dye was added and the sample incubated for 2 hours in the dark. Relative fluorescence units (RFU) were read using the Perkin Elmer Wallac 1420 fluorescence plate reader, with excitation and emission wavelengths of 485 nm and 535 nm respectively. The readouts values were aligned with corresponding drug doses and analysis performed by Graph-pad Prism software. The drug concentrations (x value) were transformed using X = Log[X] and plotted against the counts (y values) and the data analysed by non-linear regression (sigmoid dose-response/variable slope equation) to yield the IC50.

[4] = tested on: synchronized Pf3D7 strain cultures (rings, trophozoites); assay: Stage-specificity and parasitemia titres on synchronized Pf3D7 cultures (Giemsa smears); assay type: cell-based, Plasmodium falciparum; conditions: for effect on ring stage parasitemia: 6 hours post exposure of ring stages; for effect on ring stage parasitemia / effect on mature blood stage parasite titres (parasitemia): Fig. 5; for effect on mature blood stage parasite titres (parasitemia): 16 hours after incubation with trophozoite stage; for effect on progression from trophozoites to schizonts / schizont morphology: concentration = individual IC50, up to 16 hours exposure; for effect on ring-stage growth and morphology: newly synchronized rings, concentration = individual IC50, monitored at 6 and 12 hours
Procedure: Next, we sought to determine stage-specificity of the antiplasmodial activity of the four active analogues (6a, 6h, 6m and 6u) on synchronized Pf3D7 strain cultures at 2% hematocrit and 1% parasitemia, with concentrations corresponding to individual drug IC50. To determine the effect of the compounds on both early and late ring stage parasites, the treatment was conducted on newly synchronized rings for 12 hours, and drug effect on parasite growth and morphology was monitored at 6 and 12 hours after exposure. Similarly, early trophozoites were exposed to each compound and incubated for 16 hours, and monitored at 6 and 16 hours post-exposure. The effect of the compounds on parasite morphology and development was compared in exposed and unexposed drug wells (Figs 3 and 4).
Figure 5 Effect of Pht analogues on parasite growth titres (Note: Graphical description of the inhibitory effect of select analogues on parasite growth titres 6 hours after incubation with ring-stages and 16 hours after drug incubation with trophozoite stage. Parasitemia percentage was derived by counting the number of infected erythrocytes from a total of 2,000 erythrocytes on Giemsa stained thin smears from each experiment. Bar diagrams represent the average of three different experiments).

[5] = MTT cytotoxicity assay in U937 cells; assay type: cell-based; conditions: human; for selectivity ratio at 24 h: U937 cells (CC50) versus 3D7 parasites (IC50), CC50 U937 / IC50 3D7, SI > 2 = low cytotoxicity, read-out: selectivity index (SI); for CC50 at 24 h: U937 cells, MTT
Procedure: As a final step in the investigational pipeline, we determined the cytotoxic effect of the four active analogues (6a, 6h, 6m and 6u) in U937 cell lines by measuring 50% cytotoxic concentrations (CC50) and calculating selectivity indices (SIs) as a measure of toxicity in human cells.
Cytotoxicity of the 4 select Pht compounds on human cells was evaluated by assessing cell viability of the U937, a human acute monocyte leukemia cell lines by use of the MTT assay. U937 was acquired from American Type Culture Collection (ATCC, Rockville, MD) and maintained in RPMI 1640 medium supplemented with 10% fetal bovine serum, and Penicillin-streptomycin (1% v/v) (Gibco, UK) at 37 °C. Robust U937 cells at a concentration of 80,000 cells/ml were plated into 96-well plates and incubated for 24 hours. Six concentrations of the Pht compounds were added in a two-fold dilution from starting concentration of 50 to 1.56 µM in triplicate and incubated with the cells for 24 hours. This was followed by addition of 10 µL MTT solution (5 mg/mL) into each well, incubated for 4 hour at 37 °C followed by addition of 50 µL DMSO to dissolve the formazan precipitate according to manufacturer’s protocol. Aliquots were drawn from each well and color intensity was measured spectrophotometrically in an ELISA plate reader (Biotek, ELx800) at 540 nm. The cell viability ratio was calculated by the following formula: % cytotoxicity = [Mean OD of test cells] − [Mean OD of control cells]/[Mean OD of control cells] × 100. Viability counts were then plotted against corresponding drug concentrations to yield cytotoxicity (CC50) through non-linear regression (sigmoid dose-response/variable slope equation). Drug CC50 values were then used to define selectivity indices, which is a measure of drug safety in human relative to parasitic cells and was calculated as the ratio of the CC50 value determined on the U937 cells (cytotoxicity) and the IC50 value determined on parasite growth inhibition 3D7 (anti-plasmodial activity). In this study, we set SI > 2 as cut-off as an indicative of low drug cytotoxicity.

[6] = tested on: CQ resistant PfW2 strain; assay: SYBR Green I growth inhibition assay, P. falciparum W2 culture; assay type: cell-based; conditions: Plasmodium falciparum
From the text: as §2
as §3, with “Drug exposure was terminated by freezing the drug plates at −80 °C for 24 hours after which lysis buffer containing (per liter) 100 mM Tris-HCl, 10 mM EDTA, 0.016% Saponin, 1.6% triton X-100 and 20X SYBR Green I dye was added and the sample incubated for 2 hours in the dark.” left out

[7] = Plasmodium falciparum, 3D7, Pf3D7, asynchronous culture, read-out: IC50 (SE) µg/mL

- IC50 [3, 7]: 0.7 µg/mL
SMILES: CC(C)C[C@H](c1nc2ccccc2n1Cc1cn(-c2ccccc2)nn1)N1C(=O)c2ccccc2C1=O [Compound 6a]
- interaction when combined with CQ and DHA [1]: synergistic activity
- interaction when combined with CQ and DHA [2]: synergistic activity
- effect on ring stage parasitemia [4]: reduction in ring stage parasitemia
- effect on mature blood stage parasite titres (parasitemia) [4]: negligible
- effect on progression from trophozoites to schizonts / schizont morphology ([4]; early trophozoites): did not interfere with development of parasite progression from trophozoites to schizonts
- effect on ring-stage growth and morphology [4]: active against ring-stage forms
- selectivity ratio at 24 h [5]: 1.01 ± 1.5
- CC50 at 24 h [5]: 910 ± 320 nM
- IC50 [6]: 700 nM

- IC50 ([3]; Pf3D7, asynchronous culture, read-out: IC50 (SE) µM): 3.5 µM
- IC50 ([3]; Plasmodium falciparum, 3D7, Pf3D7, asynchronous culture, read-out: IC50 (SE) µM): < 5.14 µM
- IC50 [3, 7]: 1.8 µg/mL
SMILES: CC(C)[C@H](c1nc2ccccc2n1Cc1cn(-c2ccc(F)cc2)nn1)N1C(=O)c2ccccc2C1=O [Compound 6m]
- effect on ring stage parasitemia [4]: did not affect parasite growth
- effect on mature blood stage parasite titres (parasitemia) [4]: reduction in parasitemia
- effect on trophozoites ([4]; early trophozoites, concentration = individual IC50, 6 hours after exposure): trophozoite growth did not appear to be affected
- effect on progression from trophozoites to schizonts / schizont morphology ([4]; early trophozoites): schizonts appeared less granular and lacked distinguishable merozoites
- effect on ring-stage growth and morphology [4]: did not arrest ring-stage maturation
- selectivity ratio at 24 h [5]: 1.11 ± 1.5
- CC50 at 24 h [5]: 780 ± 320 nM
- IC50 [6]: 3800 nM
